Data reported in patent US9175013B2, “Fused aminodihydrothiazine derivatives” (Eisai R&D Management Co., Ltd., priority 2011, dated 2015).
Read-outs that look alike come from different tables or passages of the source.

What was measured:
[1] = test system: Aβ peptide production in rat primary neuronal culture; assay: In vitro cellular assay: quantification of Aβ peptide in culture of neurons from rat fetus brain; format: cell-based, Wistar rat; conditions: Primary cortical neuron; Aβ ELISA, rat primary cortical neurons; Aβ species (x-40 or x-42) not given; read-out: IC50
Protocol: Quantification of Aβ Peptide in Culture of Neurons from Rat Fetus Brain
Primary neuronal cultures were prepared from the cerebral cortex of embryonic day 18 Wistar rats (Charles River, UK). Specifically, the embryos were aseptically removed from pregnant rats under ether anesthesia. The brain was isolated from the embryo and immersed in HBSS (Sigma Aldrich #H9269) containing 10 mM HEPES (Gibco #15630-056). The cerebral cortex was collected from the isolated brain under a stereoscopic microscope. The cerebral cortex fragments collected were enzymatically treated in an enzyme solution containing 0.05% trypsin-EDTA solution (GIBCO, #25300) at 37° C. for 20 minutes to disperse the cells. The cells were then washed twice and then gently resuspended in Neurobasal medium (Gibco #21103) supplemented with 2% B27 supplement (GIBCO #17504-044), 0.5 mM L-glutamine (GIBCO #25030), 1×N2 (GIBCO #17502-048), 100 μg/ml Pen/Strep (GIBCO 15140-122) and 5% heat inactivated FCS (PAA #A15-701). The cell dispersion was filtered through a 40-μm nylon mesh (BD Falcon #352340) to remove the remaining cell mass, and thus a neuronal cell suspension was obtained. The neuronal cell suspension was diluted with the medium above and then plated in a volume of 100 μL/well at an initial cell density of 3.25×10^5 cells/ml in poly-D-lysine coated 96-well culture plate (Greiner #655940). The plated cells were cultured in the culture plate at 37° C. in 5% CO2-95% air for 24 hrs. The total amount of the medium was replaced with ‘assay Neurobasal medium’ (as above excluding heat inactivated FCS), and then the cells were cultured for a further five days.
The drug was added to the culture plate on Day 6 of culture as follows. 8 point compound serial dilutions were generated in DMSO at a concentration of ×1000 that of the final assay concentration (FAC). Compound solutions were then prepared by adding 999 ul of ‘Assay Neurobasal media’ (as described in above section) to 1 ul of DMSO compound stock. The total amount of the medium was removed from each of the cell plate wells, and […] of ‘Assay Neurobasal media’ was added followed by […] of compound solution. The final DMSO concentration was 0.1%. […]
Cell survival was evaluated using an Alamar assay according to the following procedure. […]
Measurement of fluorescence intensity for each well was the carried out at 540/590 nm using a Pherastar plus plate reader (BMG labtech). […]
Human/Rat β Amyloid (42) ELISA Kit Wako (#290-62601) and Human/Rat P Amyloid (40) ELISA Kit Wako (#294-62501) from Wako Pure Chemical Industries, Ltd. were used for Aβ ELISA. […] The results were shown as percentage of the control groups and IC50 values for each compound were determined using four parameter logistic fit model using the XLFIT5 software package (IDBS).

[2] = TASTPM mice, cited from earlier work; for brain concentration: oral dose of 250 mg/kg
BACE-1 = BACE-1 (Homo sapiens, UniProt P56817); conditions: cited from earlier work
Aβ40 = conditions: TASTPM mice, cited from earlier work

BACE-1, sequence (P56817 46-501, species assumed): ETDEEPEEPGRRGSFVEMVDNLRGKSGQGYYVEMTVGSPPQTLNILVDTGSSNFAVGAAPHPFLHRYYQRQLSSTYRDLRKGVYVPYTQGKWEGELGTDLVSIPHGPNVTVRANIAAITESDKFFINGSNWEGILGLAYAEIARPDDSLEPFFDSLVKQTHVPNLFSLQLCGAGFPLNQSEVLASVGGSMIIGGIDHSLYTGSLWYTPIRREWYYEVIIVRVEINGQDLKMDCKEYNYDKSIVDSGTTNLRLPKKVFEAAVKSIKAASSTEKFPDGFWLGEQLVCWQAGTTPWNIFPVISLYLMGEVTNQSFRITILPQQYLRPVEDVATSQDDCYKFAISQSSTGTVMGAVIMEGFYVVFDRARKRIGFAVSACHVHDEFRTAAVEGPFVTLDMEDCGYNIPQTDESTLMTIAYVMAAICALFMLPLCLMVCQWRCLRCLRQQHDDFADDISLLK

COc1cnc(C(=O)Nc2cc(F)c(F)c([C@]34CO[C@H](C(F)F)[C@H]3CSC(N)=N4)c2)cn1 [Example 1, N-(3-((4aS,5S,7aS)-2-amino-5-(difluoromethyl)-4a,5,7,7a-tetrahydro-4H-furo[3,4-d][1,3]thiazin-7a-yl)-4,5-difluorophenyl)-5-methoxypyrazine-2-carboxamide]
IC50 [1]: 7 nM

CCNc1cc(C(=O)N[C@@H](Cc2ccccc2)[C@H](O)CNCc2cccc(C(F)(F)F)c2)c(F)c(N2CCCCS2(=O)=O)c1 [GSK188909]
increase in CNS penetration by co-administration of a Pgp inhibitor ([2]; 250 mg/kg oral, with vs without GF120918): ~9 fold
brain concentration ([2]; Pgp inhibitor GF120918 dosed 5 hours before): 5.43 µM
brain concentration ([2]; no Pgp inhibitor): 0.62 µM
IC50 (BACE-1): 5 nM
effect on brain Aβ40 levels (Aβ40; 250 mg/kg oral dose, absence of a Pgp inhibitor): did not have any effect
reduction in brain Aβ40 levels relative to vehicle-treated mice (Aβ40; 250 mg/kg oral, Pgp inhibitor co-administered 5 hours prior): 68%
